Reference: ChEMBL document CHEMBL5614393, “Thioamides in medicinal chemistry and as small molecule therapeutic agents” (Eur J Med Chem, 2024)
Values after ≈ are worked out from the molar mass of the structure shown.

Tests used:
[1] = target: NAD-dependent protein deacylase sirtuin-5, mitochondrial (Homo sapiens, UniProt Q9NXA8); assay: Inhibition of SIRT5 (unknown origin)
[2] = target: NAD-dependent protein deacetylase sirtuin-3, mitochondrial (Homo sapiens, UniProt Q9NTG7); assay: Inhibition of SIRT3 (unknown origin)
[3] = target: NAD-dependent protein deacetylase sirtuin-1 (Homo sapiens, UniProt Q96EB6); assay: Inhibition of SIRT1 (unknown origin)
[4] = target: T1, NAD-dependent protein deacetylase sirtuin-2 (Homo sapiens, UniProt Q8IXJ6); assay: Inhibition of SIRT2 (unknown origin)
T1 sequence (Q8IXJ6 whole entry): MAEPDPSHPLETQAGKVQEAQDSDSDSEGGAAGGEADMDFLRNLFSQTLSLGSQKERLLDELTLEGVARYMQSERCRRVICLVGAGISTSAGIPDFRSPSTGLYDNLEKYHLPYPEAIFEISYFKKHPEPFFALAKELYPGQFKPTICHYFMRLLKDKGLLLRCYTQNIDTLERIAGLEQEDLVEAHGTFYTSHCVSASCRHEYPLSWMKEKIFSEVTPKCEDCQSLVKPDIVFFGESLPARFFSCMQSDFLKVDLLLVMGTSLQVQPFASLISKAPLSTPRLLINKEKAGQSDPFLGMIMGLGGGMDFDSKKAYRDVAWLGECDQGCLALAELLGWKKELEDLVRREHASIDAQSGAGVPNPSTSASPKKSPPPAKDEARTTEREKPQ

Pseudomonas aeruginosa = assay: Antibacterial activity against Pseudomonas aeruginosa ATCC 9027 assessed as reduction in bacterial cell growth incubated for 16 hrs by CLSI-based Mueller-Hinton broth dilution method; assay type: functional
[5] = tested on: Staphylococcus epidermidis; assay: Antibacterial activity against Staphylococcus epidermidis ATCC 12228 assessed as reduction in bacterial cell growth incubated for 16 hrs by CLSI-based Mueller-Hinton broth dilution method; assay type: functional
[6] = Inhibition of urease (unknown origin)
Staphylococcus aureus = assay: Antibacterial activity against Staphylococcus aureus ATCC 6538 assessed as reduction in bacterial cell growth incubated for 16 hrs by CLSI-based Mueller-Hinton broth dilution method; assay type: functional
[7] = target: T1, NAD-dependent protein deacetylase sirtuin-2; assay: Inhibition of C-terminal His-tagged SIRT2 (50 to 356 residues) (unknown origin) using Ac-Glu-Thr-Asp-Lys(Myr)-AMC as substrate by fluorescence based analysis
[8] = Half life in mouse; assay type: ADME, organism-based; conditions: in vivo
MDA-MB-231 [9] = assay: Antiproliferative activity against human MDA-MB-231 cells overexpressing PHGDH assessed as reduction in cell growth; assay type: functional, cell-based
[10] = AUClast in mouse at 40 mg/kg, ip; assay type: ADME, organism-based; conditions: in vivo
HCT-116 [11] = assay: Growth inhibition of human HCT-116 cells by SRB assay; assay type: functional
SARS-CoV-2 = assay: Antiviral activity against SARS-CoV-2 infected in African green monkey Vero E6 cells incubated for 48 hrs by plaque reduction assay; assay type: functional, organism-based; conditions: Severe acute respiratory syndrome coronavirus 2, Vero C1008, 48 h
HeLa = assay: Cytotoxicity against human HeLa cells assessed as reduction in cell viability incubated for 24 hrs by MTT assay; assay type: functional, cell-based
A549 = assay: Cytotoxicity against human A549 cells assessed as reduction in cell viability incubated for 24 hrs by MTT assay; assay type: functional, cell-based; conditions: A549, 24 h
MCF7 [12] = assay: Cytotoxicity against human MCF7 cells assessed as reduction in cell growth incubated for 24 hrs by MTT assay; assay type: functional, cell-based; conditions: MCF7, 24 h
HCT-116 [13] = assay: Cytotoxicity against human HCT-116 cells assessed as reduction in cell growth incubated for 24 hrs by MTT assay; assay type: functional, cell-based; conditions: HCT-116, 24 h
Homo sapiens = species on record: Homo sapiens; assay: Inhibition of NOS (unknown origin) at 15.6 uM relative to control
MCF7 [14] = assay: Cytotoxicity against human MCF7 cells assessed as reduction in cell viability incubated for 48 hrs by MTT assay; assay type: functional, cell-based; conditions: MCF7, 48 h
[15] = target: Epidermal growth factor receptor (Homo sapiens, UniProt P00533); assay: Inhibition of EGFR (unknown origin)
Carbonic anhydrase 1 = Carbonic anhydrase 1 (Homo sapiens, UniProt P00915); assay: Inhibition of human carbonic anhydrase I
Carbonic anhydrase 2 = Carbonic anhydrase 2 (Homo sapiens, UniProt P00918); assay: Inhibition of human carbonic anhydrase II
HCT-116 [16] = assay: Antiproliferative activity against human HCT-116 cells; assay type: functional, cell-based
MDA-MB-231 [17] = assay: Antiproliferative activity against human MDA-MB-231 cells; assay type: functional, cell-based
HepG2 [18] = assay: Antiproliferative activity against human HepG2 cells; assay type: functional, cell-based
MCF7 [19] = assay: Antiproliferative activity against human MCF7 cells; assay type: functional, cell-based
[20] = Antioxidant activity assessed as DPPH radical scavenging activity; assay type: functional
PC-3 = assay: Cytotoxicity against human PC-3 cells assessed as reduction in cell growth by MTT colorimetric assay; assay type: functional, cell-based
MCF7 [21] = assay: Cytotoxicity against human MCF7 cells assessed as reduction in cell growth by MTT colorimetric assay; assay type: functional, cell-based
HepG2 [22] = assay: Cytotoxicity against human HepG2 cells assessed as reduction in cell growth by MTT colorimetric assay; assay type: functional, cell-based
SiHa = assay: Antiproliferative activity against human SiHa cells overexpressing PHGDH assessed as reduction in cell growth; assay type: functional, cell-based
HL-60 = assay: Antiproliferative activity against human HL-60 cells overexpressing PHGDH assessed as reduction in cell growth; assay type: functional, cell-based

Sequence of NAD-dependent protein deacylase sirtuin-5, mitochondrial (Q9NXA8 whole entry): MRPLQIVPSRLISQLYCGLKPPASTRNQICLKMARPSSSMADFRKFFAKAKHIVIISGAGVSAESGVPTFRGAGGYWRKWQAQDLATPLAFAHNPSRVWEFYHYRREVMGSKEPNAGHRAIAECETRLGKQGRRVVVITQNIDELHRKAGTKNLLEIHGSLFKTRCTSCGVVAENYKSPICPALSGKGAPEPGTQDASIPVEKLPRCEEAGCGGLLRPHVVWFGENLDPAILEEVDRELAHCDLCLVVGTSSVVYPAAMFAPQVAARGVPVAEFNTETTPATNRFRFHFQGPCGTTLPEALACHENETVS
Sequence of NAD-dependent protein deacetylase sirtuin-3, mitochondrial (Q9NTG7 whole entry): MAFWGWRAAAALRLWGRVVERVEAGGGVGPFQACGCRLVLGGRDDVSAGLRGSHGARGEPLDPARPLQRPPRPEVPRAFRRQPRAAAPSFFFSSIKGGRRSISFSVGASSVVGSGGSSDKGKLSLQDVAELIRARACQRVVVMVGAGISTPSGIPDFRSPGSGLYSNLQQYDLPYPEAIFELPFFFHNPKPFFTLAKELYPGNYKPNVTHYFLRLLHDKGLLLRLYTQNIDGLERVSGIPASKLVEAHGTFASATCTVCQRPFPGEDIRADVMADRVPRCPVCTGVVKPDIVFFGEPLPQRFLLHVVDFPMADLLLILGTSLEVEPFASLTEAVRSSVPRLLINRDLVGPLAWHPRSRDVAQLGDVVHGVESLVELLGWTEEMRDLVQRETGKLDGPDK
Sequence of Carbonic anhydrase 1 (P00915 whole entry): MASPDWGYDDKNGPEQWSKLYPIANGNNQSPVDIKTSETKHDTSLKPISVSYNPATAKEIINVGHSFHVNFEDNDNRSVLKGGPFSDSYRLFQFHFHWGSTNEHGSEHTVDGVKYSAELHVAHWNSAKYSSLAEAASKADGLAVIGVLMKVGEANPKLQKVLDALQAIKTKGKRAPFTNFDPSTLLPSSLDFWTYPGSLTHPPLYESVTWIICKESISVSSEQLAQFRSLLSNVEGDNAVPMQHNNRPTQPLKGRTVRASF
Sequence of NAD-dependent protein deacetylase sirtuin-1 (Q96EB6 whole entry): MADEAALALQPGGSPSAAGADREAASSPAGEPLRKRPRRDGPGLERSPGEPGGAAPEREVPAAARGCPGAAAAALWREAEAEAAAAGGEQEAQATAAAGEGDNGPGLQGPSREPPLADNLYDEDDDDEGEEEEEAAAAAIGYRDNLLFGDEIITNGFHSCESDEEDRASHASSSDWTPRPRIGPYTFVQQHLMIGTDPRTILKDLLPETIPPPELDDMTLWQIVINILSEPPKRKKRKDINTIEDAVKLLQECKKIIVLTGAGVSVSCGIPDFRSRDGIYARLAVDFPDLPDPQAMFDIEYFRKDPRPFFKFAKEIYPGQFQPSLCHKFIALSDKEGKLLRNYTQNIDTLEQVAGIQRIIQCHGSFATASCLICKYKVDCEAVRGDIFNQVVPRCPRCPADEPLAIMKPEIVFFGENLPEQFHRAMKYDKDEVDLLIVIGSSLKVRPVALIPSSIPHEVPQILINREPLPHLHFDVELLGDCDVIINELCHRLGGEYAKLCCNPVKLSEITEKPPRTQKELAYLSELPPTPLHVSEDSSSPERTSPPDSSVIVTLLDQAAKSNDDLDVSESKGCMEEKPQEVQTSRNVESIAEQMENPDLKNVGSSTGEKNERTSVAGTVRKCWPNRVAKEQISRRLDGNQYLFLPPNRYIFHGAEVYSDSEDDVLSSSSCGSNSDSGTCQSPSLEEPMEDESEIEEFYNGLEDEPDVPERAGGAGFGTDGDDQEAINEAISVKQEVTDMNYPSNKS
Sequence of Epidermal growth factor receptor (P00533 whole entry): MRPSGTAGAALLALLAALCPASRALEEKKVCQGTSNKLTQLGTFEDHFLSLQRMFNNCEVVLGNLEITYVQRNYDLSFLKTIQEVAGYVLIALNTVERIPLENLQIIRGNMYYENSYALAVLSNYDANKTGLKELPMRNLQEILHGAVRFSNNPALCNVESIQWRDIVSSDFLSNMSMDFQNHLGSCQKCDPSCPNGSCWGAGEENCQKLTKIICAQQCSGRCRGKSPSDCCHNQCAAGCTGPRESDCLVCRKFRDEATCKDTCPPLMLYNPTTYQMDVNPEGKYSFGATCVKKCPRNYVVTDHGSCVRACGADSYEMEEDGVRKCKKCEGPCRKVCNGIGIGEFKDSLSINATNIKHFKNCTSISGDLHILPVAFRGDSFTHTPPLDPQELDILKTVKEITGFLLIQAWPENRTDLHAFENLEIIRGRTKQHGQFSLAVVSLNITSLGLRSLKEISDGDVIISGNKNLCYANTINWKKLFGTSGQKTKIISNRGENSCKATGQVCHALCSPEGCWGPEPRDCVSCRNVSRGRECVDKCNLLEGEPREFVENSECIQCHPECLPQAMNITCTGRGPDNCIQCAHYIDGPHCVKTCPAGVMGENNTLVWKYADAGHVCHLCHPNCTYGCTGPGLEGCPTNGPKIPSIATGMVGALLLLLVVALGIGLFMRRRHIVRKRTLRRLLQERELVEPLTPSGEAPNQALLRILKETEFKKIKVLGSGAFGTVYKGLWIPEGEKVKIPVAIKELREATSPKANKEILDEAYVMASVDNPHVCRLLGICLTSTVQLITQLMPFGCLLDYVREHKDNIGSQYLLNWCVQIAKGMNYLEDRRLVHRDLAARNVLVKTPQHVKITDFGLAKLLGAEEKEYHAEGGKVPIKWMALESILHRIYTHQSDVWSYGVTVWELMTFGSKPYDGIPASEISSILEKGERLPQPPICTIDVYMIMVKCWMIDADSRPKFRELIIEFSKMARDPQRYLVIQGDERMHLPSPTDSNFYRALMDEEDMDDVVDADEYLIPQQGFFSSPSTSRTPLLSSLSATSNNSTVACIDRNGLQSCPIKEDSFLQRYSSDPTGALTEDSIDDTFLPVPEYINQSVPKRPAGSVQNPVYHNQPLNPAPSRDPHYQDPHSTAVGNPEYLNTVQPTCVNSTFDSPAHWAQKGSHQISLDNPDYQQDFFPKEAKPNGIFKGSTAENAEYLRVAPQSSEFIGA

**Q.** With `CCCCCCCCCCCCCC(=O)NCCCCC(NC(=O)OCc1ccccc1)C(=O)Nc1ccccc1` (configuration not stated) as the compound, how does the IC50 [1] read?
**A.** > 200 µM

**Q.** And the IC50 [2]?
**A.** > 200 µM

**Q.** And the IC50 [3]?
**A.** > 200 µM

**Q.** What about the IC50 [4] of the same compound?
**A.** > 200 µM

**Q.** For `O=C(O)c1cn(C2CC2)c2cc(N3CCN(C(=S)c4cccc(F)c4)CC3)c(F)cc2c1=O`, which MIC50 (Pseudomonas aeruginosa) is on record?
**A.** < 3 ng/mL

**Q.** What about the MIC50 [5] of the same compound?
**A.** < 3 ng/mL

**Q.** And the IC50 [6]?
**A.** 4.08 µM

**Q.** And the MIC50 (Staphylococcus aureus)?
**A.** < 3 ng/mL

**Q.** With `CCCCCCCCCCCCNC(=S)NCCCC[C@H](NS(C)(=O)=O)C(=O)N[C@H](C)C(=O)NCCCCNC(=N)N` as the compound, how does the IC50 [7] read?
**A.** 0.1 µM

**Q.** And the half-life [8]?
**A.** < 2 h

**Q.** With `Cc1cc(C)nc(NC(=S)N2CCN(Cc3ccc(C(F)(F)F)cc3)CC2)c1` as the compound, how does the IC50 (MDA-MB-231 [9]) read?
**A.** 8 µM

**Q.** And the AUClast [10]?
**A.** 147 µg·h/mL

**Q.** Which GI50 (HCT-116 [11]) does the source give for `COc1cc(C2CC(c3ccccc3)=NN2C(N)=S)cc(OC)c1OC` (configuration not stated) here?
**A.** 0.15 µM

**Q.** With `CC(C)(C)[C@H](NC(=O)C(F)(F)F)C(=O)N1C[C@H]2[C@@H]([C@H]1C(=O)N[C@H](C#N)C[C@H]1CCNC1=O)C2(C)C` as the compound, how does the EC50 (SARS-CoV-2) read?
**A.** 0.94 µM

**Q.** What does the source list for `CN(C)c1ccc(C2CC(c3ccc(Cl)cc3)=NN2C(N)=S)cc1` (configuration not stated)?
**A.** IC50 (HeLa): 17.5 µM; IC50 (A549): 13.5 µM

**Q.** For `Cc1cc(C)c2c(n1)nn1c(C)c(C(=S)Nc3ccccc3)nnc21`, which IC50 (MCF7 [12]) is on record?
**A.** 11.7 µM

**Q.** And the IC50 (HCT-116 [13])?
**A.** 12.6 µM

**Q.** For `CCCCCCCCCCCCCC(=S)NCCCC[C@H](NS(C)(=O)=O)C(=O)N[C@H](C)C(=O)NCCCCNC(=N)N`, which IC50 [7] is on record?
**A.** 0.09 µM

**Q.** What about the half-life [8] of the same compound?
**A.** > 2 h

**Q.** Which EC50 (SARS-CoV-2) does the source give for `COc1ccc(F)c2[nH]c(C(=O)N[C@@H](CC(C)C)C(=S)N[C@@H](C[C@@H]3CCNC3=O)C(=O)c3nc4c(F)cccc4s3)cc12` here?
**A.** 0.34 µM

**Q.** Which inhibition (Homo sapiens) does the source give for `O=[N+]([O-])c1ccc(N2CCN(C(=S)NCc3nc4ccccc4s3)CC2)cc1` here?
**A.** 67%

**Q.** For `COc1ccc(C2=NN(C(N)=S)C(/C=C/c3ccccc3)C2)cc1` (configuration not stated), which IC50 (MCF7 [14]) is on record?
**A.** 22.4 µM

**Q.** Which IC50 [6] does the source give for `O=C(O)c1cn(C2CC2)c2cc(N3CCN(C(=S)c4ccc([N+](=O)[O-])cc4)CC3)c(F)cc2c1=O` here?
**A.** 2.05 µM

**Q.** Which EC50 (SARS-CoV-2) does the source give for `COc1ccc(F)c2[nH]c(C(=O)N[C@@H](CC(C)C)C(=O)N[C@@H](C[C@@H]3CCNC3=O)C(=O)c3nc4c(F)cccc4s3)cc12` here?
**A.** 0.29 µM

**Q.** For `COc1ccc(NC(=S)N2CCc3ccccc3C2)cc1`, which IC50 [6] is on record?
**A.** 11.2 µM

**Q.** Which results are given for `CCCCCCCCCCCCCC(=S)NCCCCC(NC(=O)OCc1ccccc1)C(=O)Nc1ccccc1` (configuration not stated)?
**A.** IC50 [1]: > 200 µM; IC50 [2]: > 200 µM

**Q.** For `COc1cccc2[nH]c(C(=O)N[C@@H](CC(C)C)C(=O)N[C@@H](C[C@@H]3CCNC3=O)C(=O)c3nc4ccccc4s3)cc12`, which EC50 (SARS-CoV-2) is on record?
**A.** 0.29 µM

**Q.** With `FC(F)(F)c1ccc(NC(=S)N2CCc3ccccc3C2)cc1` as the compound, how does the IC50 [6] read?
**A.** 11.2 µM

**Q.** Which IC50 (MCF7 [14]) does the source give for `NC(=S)N1N=C(c2ccc(Cl)cc2)CC1/C=C/c1ccccc1` (configuration not stated) here?
**A.** 7.18 µM

**Q.** For `NC(=S)N1N=C(c2ccccc2)CC1/C=C/c1ccccc1` (configuration not stated), which IC50 [15] is on record?
**A.** 0.34 µM

**Q.** What about the IC50 (MCF7 [14]) of the same compound?
**A.** 4.53 µM

**Q.** Which IC50 [6] does the source give for `O=C(O)c1cn(C2CC2)c2cc(N3CCN(C(=S)c4cccc([N+](=O)[O-])c4)CC3)c(F)cc2c1=O` here?
**A.** 5.87 µM

**Q.** Which IC50 (MCF7 [14]) does the source give for `COc1ccc(C2=NN(C(N)=O)C(/C=C/c3ccccc3)C2)cc1` (configuration not stated) here?
**A.** 37.7 µM

**Q.** Which IC50 (Carbonic anhydrase 1) does the source give for `COc1ccc(-c2cc(-c3ccc(N)cc3)nn2C(N)=S)cc1OC` here?
**A.** 0.00513 µM

**Q.** And the IC50 (Carbonic anhydrase 2)?
**A.** 0.0205 µM

**Q.** Which IC50 (HCT-116 [16]) does the source give for `COc1ccc(C2=NN(C(N)=S)C(c3ccc(Cl)cc3)C2)cc1` (configuration not stated) here?
**A.** 5.89 µM

**Q.** And the IC50 (MDA-MB-231 [17])?
**A.** 8.5 µM

**Q.** What about the IC50 (HepG2 [18]) of the same compound?
**A.** 6.08 µM

**Q.** And the IC50 (MCF7 [19])?
**A.** 9.37 µM

**Q.** With `COc1cc(-c2cc(-c3ccc(N)cc3)nn2C(N)=S)cc(OC)c1OC` as the compound, how does the IC50 (Carbonic anhydrase 1) read?
**A.** 0.0122 µM

**Q.** Which IC50 [20] does the source give for `CN(C)c1ccc(C2CC(c3cccs3)=NN2C(N)=S)cc1` (configuration not stated) here?
**A.** 632 ng/mL (≈ 1910 nM)

**Q.** Which IC50 (MCF7 [14]) does the source give for `NC(=O)N1N=C(c2ccc(Cl)cc2)CC1/C=C/c1ccccc1` (configuration not stated) here?
**A.** 15.1 µM

**Q.** With `COc1ccc2ccc3c(c2c1)C(c1c(F)cccc1F)C(C(N)=S)=C(N)O3` (configuration not stated) as the compound, how does the IC50 (PC-3) read?
**A.** 1.1 µM

**Q.** And the IC50 (MCF7 [21])?
**A.** 5.4 µM

**Q.** And the IC50 (HepG2 [22])?
**A.** 4.5 µM

**Q.** Which IC50 (MCF7 [14]) does the source give for `NC(=O)N1N=C(c2ccccc2)CC1/C=C/c1ccccc1` (configuration not stated) here?
**A.** 19.1 µM

**Q.** For `Cc1cccc(C)c1NC(=S)N1CCc2ccccc2C1`, which IC50 [6] is on record?
**A.** 11.2 µM

**Q.** What does the source list for `O=C(C(=S)N1CCOCC1)c1ccc(Cl)cc1`?
**A.** IC50 (SiHa): 6.6 µM; IC50 (MDA-MB-231 [9]): > 100 µM; IC50 (HL-60): 15.5 µM
